From patent US20020058694A1, “Ureido and thioureido derivatives of 4-amino-2(5H)-furanones and 4-amino-2(5H)-thiophenones as antitumor agents” (Roche Diagnostics GmbH, priority 1997, published 2002)
≈ marks a conversion by molar mass, not a printed value.

Experiments:
Assay type in all cases: cell-based
Conditions in all cases: 144 hours of incubation, concentration which causes the death of 50% of cell population
HCT 116 = assay: MTT cytotoxicity assay, HCT 116 human colon tumor cell line
Protocol: (§1) The compounds of the invention were tested against three human colon tumor cell lines (HT 29, HCT 116 and LoVo). After 144 hours of incubation of the cells with the compound to be tested, the cytotoxicity is evaluated using the MTT assay (Mosman, T. “Rapid Colorimetric Assay for Cellular Growth and Survival: Application to Proliferation and Cytotoxicity Assay”; J. Immunol. Methods, (1983), 65, 66; Green, L. M., “Rapid Colorimetric Assay for Cell Viability; Application to the Quantitation of Cytotoxic and Growth Inhibitory Lymphokines”, J. Immunol. Methods, (1984), 70, 257-268). The results are expressed as IC50 ([…]), that it the concentration of the tested compound which causes the death of 50% of cell population.

HT 29 = assay: MTT cytotoxicity assay, HT 29 human colon tumor cell line
Protocol: as §1

LoVo = assay: MTT cytotoxicity assay, LoVo human colon tumor cell line
Protocol: as §1

| SMILES | IC50 (HCT 116) | IC50 (HT 29) | IC50 (LoVo) |
| --- | --- | --- | --- |
| O=C(NC1=CC(=O)OC1)Nc1ccc(Cl)cc1 [Example 2, 4-[N-(4-chlorophenyl)aminocarbonylamino]-2(5H)-furanone] | 0.034 µg/mL (≈ 0.135 µM) | 0.032 µg/mL (≈ 0.127 µM) | 0.01 µg/mL (≈ 0.0396 µM) |
| CCc1ccc(NC(=O)NC2=CC(=O)OC2)cc1Cl [Example 3, 4-[N-(4-ethyl-3-chlorophenyl)aminocarbonylamino)-2(5H)-furanone] | < 0.01 µg/mL | 0.003 µg/mL (≈ 0.0107 µM) | 0.034 µg/mL (≈ 0.121 µM) |
